In patent US20240197890A1, “FLAVONE DERIVATIVES AND USES IN TARGETING CK2-MEDIATED DISEASES AND CONDITIONS” (Salk Institute for Biological Studies, priority 2020, published 2024):

How the values were obtained:
[1] = tested on: CK2; experiment: Target engagement in mouse brain homogenates (Cyclex CK2 ELISA kit); format: in vivo; details: single dose 25.6 mg/kg i.p., in comparison to FNH79
Description: Animals. All animal procedures were approved by the Institutional Animal Care and Use Committee of The Salk Institute for Biological Studies. Wildtype male C57BL/6 mice (2-3 months old) were housed under standard 12-h light/dark cycles with free access to food and water. IN2.2 or vehicle (3% hydroxypropylmethylcellulose, HPMC) was injected as a single dose (25.6 mg/kg) i.p. mice (n=6 and n=3 controls). Blood was collected at t=0, 0.5, 1, 2, 4, 8, 24 via retro-orbital bleeding and allowed to clot at room temperature to separate serum and clarified. At the final timepoint, mice were anesthetized with ketamine and tissues were harvested. Drug concentrations in serum and tissues were determined by LC/MS-MS. Target engagement in the brain was determined in brain homogenates from treated animals using the Cyclex CK2 ELISA kit. […] Tolerability was assessed mice (mean±s.d., n=5) by injecting with JKT56/IN3.2 daily at 20 mg/kg and monitoring closely for any signs of toxicity based on body weight changes and behavior/appearance (e.g. signs of distress, rough coat, squinty eyes, hunched posture).
IN2.2 or vehicle (3% wt/wt hydroxpropymethylcellulose aqueous solution) was injected as a single dose (25.6 mg/kg) i.p. in 2-3 month old C57Bl/6Nhsd mice (n=6 and n=3 controls). […] Drug concentrations in serum and tissues were determined by LC/MS-MS. […]

[2] = tested on: BBB organoids; experiment: BBB permeability and anti-inflammatory activity in BBB organoids; format: cell-based; details: 6.7 μM, 3 days, compared to FNH79 at 20 μM
Description: BBB permeability of IN2.2 was also determined in BBB organoids (Cho et al., Nat Commun 2017, 8:15623). Pools of -50 organoids were treated for 3 days with IL1-β and DMSO or compounds (FNH79 at 20 μM, IN2.2 at 6.7 μM) and collected in RNA-Bee reagent (Amsbio). qPCR for IL6 and IL8 expression was performed (mean±s.d., n=3).

[3] = tested on: 468 human kinases; details: testing concentration of 1 μM; cited from earlier work
[4] = tested on: NF-κB pS529; experiment: Immunofluorescence of NF-κB and NF-κB pS529 in activated astrocytes; format: cell-based, human
Description: Immunotluorescence. […] After treatment, cells were fixed with 4% paraformaldehyde solution for 20 min at room temperature and washed 3× with DPBS for 10 min each. The cells were permeabilized using 5% horse serum and 10% Triton X in DPBS for 15 min at room temperature and blocked with 5% horse serum in PBS for 30 min at room temperature. Cells were incubated with primary antibodies in blocking buffer either overnight at 4° C. or for 2 hours at room temperature. After incubation, cells were washed 3× with PBS, blocked using 5% horse serum in PBS for 30 min at room temperature, and incubated with Cy3 red-labeled or AF488 green-labeled secondary antibodies diluted in blocking buffer for 1 hour at room temperature. The cells were washed once with PBS for 10 min, then counter-stained with DAPI. The cells were washed 3× with PBS and mounted with glass coverslips and Immu-Mount solution. Images were obtained with the Zeiss fluorescent microscope. The following primary antibodies were used: rabbit anti-NF-κB (1:400; CST), mouse anti-phospho NF-κB S529 (20 ug/ml; Thermo Fisher), rabbit anti-CK2A1 (1:500; Bethyl), mouse anti-IKb alpha (1:400; CST), mouse anti-phospho IKb alpha (1:50; Santa Cruz), rabbit anti-phospho CK2A1 (1:25; Thermo Fisher), rabbit anti-phospho Cdc37 (1:50; Novus), mouse anti-phospho NF-κB S529 (1:25; R&D), rabbit anti-Cdc37 (1:100; CST), mouse anti-SQSTM1 (1:50; Santa Cruz), anti rabbit-phospho NF-κB S536 (1:1600; CST), anti rabbit-Akt (pan) (1:400; CST), anti mouse-phospho Akt S473 (1:500; Sigma).
To investigate the potential effects of CK2 activity on NF-κB, NF-κB and NF-κB pS529 were measured by immunofluorescence in activated astrocytes. […] At this timepoint, NF-κB pS529 levels were similar across all treatments, possibly as a result of slower turnover by pNF-κB species.

[5] = tested on: CK2; experiment: CK2 kinase assay in postmortem brain lysates (Csox peptide); format: biochemical, human; details: pretreatment with 20 μM for 30 min
Description: Kinase assays. In vitro kinase assays were run using the Cysteine-Sox-Kinase Sensor AQT0696, 96 assay Kit (AssayQuant Tech, CSKS-AQT0696). Compound stocks (1.25×) at concentrations in a 2-fold dilution series were prepared in kinase reaction mixes and added in duplicate to a 384-well white-bottom NBS plates (Corning X) at 20 μL/well. Then, 5 μL active recombinant human CK2a1 kinase (Thermo Fisher PV3248, 5× in Kinase Dilution Buffer) was added to each well, quickly mixed by rotation, and incubated for 5 h at 30° C., with fluorescence readings taken every 3 min (excitation λ=365 nm, emission λ=495-505 nm) on a Promega GloMax Discover Microplate Reader. The final reaction conditions contained 10 μM AQT0696 Csox peptide, 1 mM ATP, 54 mM HEPES pH 7.5, 1.2 mM DTT, 0.012% Brij-35, 0.52 mM EGTA, 1% glycerol, 0.2 mg/mL BSA, 10 mM MgCl2, and 20 nM CK2a1. Slopes corresponding to linear reaction rates were obtained for each compound concentration (RFU/sec), normalized to DMSO controls, and IC50 values were determined by applying the dose response non-linear regression model in GraphPad Prism. […] After sonication and clarification, protein concentration was measured by BCA Assay. CK2 activity was measured as described above, except lysates were used instead of purified kinase at 2 μL/well (˜0.3-0.4 ug protein per reaction). […]

[6] = tested on: IL6 and IL8 expression in astrocytes; experiment: Activation assay, ddPCR of cytokine expression in IL1-β-activated astrocytes; format: cell-based, human; details: 5 h treatment
Description: Activation assays and ddPCR. HCA or H1-derived astrocytes were treated with vehicle (DMSO) or 20 μM compound and stimulated with IL1-B 10 ng/mL for 5 h. Cells were scraped into RNA-Bee and total RNA was purified using the Direct-zol RNA kit (Zymo Research). RNA concentration was measured using Nanodrop and RNA was reverse transcribed into cDNA using the High Capacity cDNA Reverse Transcriptase Kit (Applied Biosystems). Reaction mixes consisting of TaqMan FAM probe (IL6, IL8, CSNK2A1, CSNK2A2), control TaqMan ACTB-VIC probe (TFS 4326315E), ddPCR Supermix for Probes (Bio-Rad 186-3024), and cDNA were formed into oil droplets using the QX200 Droplet Generator. After amplification (Bio-Rad C1000 Touch Thermal Cycler) according to manufacturer's instructions, the plate was read in the QX200 Droplet Reader.

[7] = tested on: AKT pS473; experiment: Immunofluorescence of AKT pS473 in IL1β-stimulated primary astrocytes; format: cell-based; details: IL1-β for 5 h
Description: (§1) Immunotluorescence. […] After treatment, cells were fixed with 4% paraformaldehyde solution for 20 min at room temperature and washed 3× with DPBS for 10 min each. The cells were permeabilized using 5% horse serum and 10% Triton X in DPBS for 15 min at room temperature and blocked with 5% horse serum in PBS for 30 min at room temperature. Cells were incubated with primary antibodies in blocking buffer either overnight at 4° C. or for 2 hours at room temperature. After incubation, cells were washed 3× with PBS, blocked using 5% horse serum in PBS for 30 min at room temperature, and incubated with Cy3 red-labeled or AF488 green-labeled secondary antibodies diluted in blocking buffer for 1 hour at room temperature. The cells were washed once with PBS for 10 min, then counter-stained with DAPI. The cells were washed 3× with PBS and mounted with glass coverslips and Immu-Mount solution. Images were obtained with the Zeiss fluorescent microscope. […]

[8] = tested on: CK2 Y255; experiment: Immunofluorescence of CK2 Y255 phosphorylation in nuclei of primary human astrocytes; format: cell-based; details: 20 μM, 5 h
Description: as §1

[9] = tested on: IκB S32; experiment: Immunoblot of IκB S32 in IL1-β-stimulated astrocytes; format: cell-based, human; details: after 5 hours
Description: Western blotting. […] Cells were dissociated with 1:1 Accutase:papain for 3 min at rt, pelleted for 5 min at 800 g, and washed twice with cold DPBS. Pellets were lysed with RIPA buffer (Sigma R0278) supplemented with Halt protease inhibitor cocktail (Thermo Fisher 78445) and clarified by centrifugation (16,000 g, 10 min, 4° C.). Protein concentration was determined by BCA assay (Thermo Fisher). Proteins were denatured in 1×LDS Buffer and 2.5% beta-mercaptoethanol (X) for 10 min at 70° C., separated on Bolt 4-12% Bis-Tris Plus polyacrylamide gels (Thermo Fisher), transferred to PVDF membranes using the iBlot 2 Dry Blotting System, and blocked with 0.1% casein-PBS (Bio-Rad) for 1 h at room temperature. The blots were incubated with primary antibodies overnight at 4° C. in PBS containing 0.1% casein and 0.2% Tween-20. Antibodies used: rabbit anti-CK2a1 (Bethyl #, 1:5000), rabbit anti-CK2a2 (Bethyl #, 1:5000), mouse anti-GAPDH (Fitzgerald #10-1501, 1:20,000), mouse anti-NF-KB (CST #6956S, 1:1000), pNF-KB S529 (TFS #14-9864-82, 1:100), LC3B (CST 2775, 1:1000), ACO2 (CST 6922, 1:1000), rabbit HMGB1 (Novus #NB1002322, 1:1000), mouse anti-IκBα (CST #4814S, 1:1000), mouse anti-IκBa pS32 (SC #8404, 1:500), HA-tag (Bethyl #A190-108A, 1:20000). […] The blots were imaged using the Odyssey CLx imaging system and blots were analyzed on the ImageStudio software (LI-COR). […]

Row | BBB permeability [2] | SMILES | target engagement in brain [1] | IL6 and IL8 expression ([2]; IL1-β) | number of other kinases inhibited >90% [3] | IL1-β-induced increase of NF-κB nuclear intensity ([4]; after 1 h) | pNF-κB nuclear intensity relative to total NF-κB ([4]; after 5 hours) | CK2-specific fluorescence of phosphorylated Csox peptide in brain lysates [5] | expression of IL6 and IL8 in IL1-β-activated astrocytes [6] | AKT pS473 levels [7] | pCK2/CK2 in nuclei [8] | IκB S32 levels [9]
1 | superior permeability | COc1cc(-c2cc(=O)c3cc(Br)cc(Br)c3o2)ncc1O [IN2.2] | superior target engagement | reduction |  |  |  |  |  |  |  | 
2 |  | O=C(O)c1ccc2c(c1)nc(Nc1cccc(Cl)c1)c1ccncc12 [CX4945] |  |  | 28 | blocked | reduced | blocked | successfully blocked | reduced | reduced | decreased
